Results taken from US10966949B2, “Dietary supplementation to achieve oxy-redox homeostasis and epigenetic stability” (PARTHENOGEN SAGL, priority 2015, dated 2021).

Key:
[1] = tested on: patients with type 2 diabetes mellitus; assay: Adjuvant treatment to metformin in newly diagnosed type 2 diabetes mellitus; assay type: in vivo, human
Text: Thirty male patients newly diagnosed as affected by type 2 diabetes mellitus and starting a treatment with metformin, 1-2 gr daily, where randomly assigned to a 3-month adjuvant treatment with the composition formulated according to EXAMPLE 1, 1 tablet per day, or no treatment.

Agouti gene Avy = assay: Agouti-yellow coat colour of offspring of supplemented VY dams (DNA methylation marking); assay type: in vivo, mouse; details: dams' diet fortified during gestation, human-equivalent dose, n=10; standard diet 66%
Text: Mice embryos carrying the transgenic Agouti gene Avy will develop during gestation an Agouti-yellow color hair instead of the normal brown color proportionally to the lack of cytosine methylation at the relevant gene promoter. Mothers with a good DNA methylation function during early embryogenesis will generate offspring exerting less of the yellow color, thus the proportion of yellow color in the offspring can be used as a measure of efficiency of DNA methylation marking. Newborn mice are classified as Y0 to Y5 according to the amount of yellow phenotype, from Y0 for those without yellow hair up to Y5 in those fully colored in yellow. Dams of the inbred agouti mouse strain VY underwent diversified feeding during their gestation: their standard diet (n=10), or; their standard diet fortified with folic acid in amounts equivalent to a human dose of 400 μg daily (n=10), or; their standard diet fortified with the substances in amounts equivalent to a human dose of 1 tablet per day of the formulation of EXAMPLE 1 (n=10). The offspring was classified Y0 to Y5 according to the amount of yellow colour. In the standard diet group the rate of offspring abundant Agouti yellow color (Y3 to Y5) was 66%, which decreased to 45% in the offspring from folic acid supplementation and to 31% in the offspring supplemented by the composition according to the invention.

[2] = tested on: plasma total antioxidant capacity (TAC); assay: Plasma total antioxidant capacity (TAC) in regular smokers, cross-over; assay type: in vivo, human; details: ten male smokers
Procedure: Ten male subjects regularly smoking 15 cigarettes per day or more assumed the composition formulated according to EXAMPLE 1, 1 tablet per day during 1 week or 1000 mg daily of vitamin C by the oral route for 1 week according to a cross-over design with a 1 month wash-out interval between the treatments. The plasma total antioxidant capacity (TAC) was measured by means of a colorimetric assay kit before and after each of the treatment periods in all subjects. The average TAC values expressed as μmol trolox equivalents increased from 472±36 to 522±32 (increase=11%) following one week supplementation with the powerful direct antioxidant vitamin C and from 468±31 to 565±36 (increase=21%) following one week supplementation with the composition according to the invention. Thus, the TAC increase provided by the aforementioned composition was of the same magnitude, if not higher, than that induced by full doses of a potent direct antioxidant.

[3] = tested on: plasma total antioxidant capacity (TAC); assay: Plasma total antioxidant capacity (TAC) in healthy young males, cross-over; assay type: in vivo, human
Procedure: Ten young male subjects aged 18-25, following a healthy diet and virtually free from diseases assumed the composition formulated according to EXAMPLE 1, 1 tablet per day, for 1 week or 1000 mg daily of vitamin C by the oral route for 1 week according to a cross-over design with a 1 month wash-out interval between the treatments. The plasma total antioxidant capacity (TAC) was measured by means of a colorimetric assay kit before and after each of the treatment periods in all subjects. The average TAC values expressed as μmol trolox equivalents increased from 572±33 to 646±20 (increase=13%) following one week supplementation with the powerful direct antioxidant vitamin C whereas it remained stable (from 570±31 to 578±26, increase=1%) following one week supplementation with the composition according to the invention.

[4] = all patients on metformin 1-2 gr daily, 3 months

CN(C)C(=N)N=C(N)N [metformin]
plasma homocysteine at the end of treatment [1, 4]: 14.4 ± 2.1 µmol/L | serum HbA1C percentage at end [1, 4]: 9.2% | serum HbA1C percentage at baseline ([1]; all patients on metformin 1-2 gr daily, baseline): 10.4% | plasma homocysteine at baseline ([1]; male type 2 diabetes patients starting metformin 1-2 gr daily, baseline): 12.04 ± 1.6 µmol/L

Nc1nc2ncc(CNc3ccc(C(=O)N[C@@H](CCC(=O)O)C(=O)O)cc3)nc2c(=O)[nH]1 [folic acid]
rate of offspring with abundant Agouti yellow color (Y3 to Y5) (Agouti gene Avy): 45%

O=C1O[C@H]([C@@H](O)CO)C(O)=C1O [vitamin C]
average plasma TAC before treatment ([2]; 15 cigarettes per day or more, before one week supplementation): 472±36 μmol trolox equivalents | average plasma TAC after treatment ([2]; after one week supplementation): 522±32 μmol trolox equivalents | TAC increase ([2]; one week supplementation): 11% | average plasma TAC after treatment ([3]; ten healthy young males aged 18-25, after one week supplementation): 646±20 μmol trolox equivalents | average plasma TAC before treatment ([3]; ten healthy young males aged 18-25, before one week supplementation): 572±33 μmol trolox equivalents | TAC increase ([3]; ten healthy young males, one week supplementation): 13%
